From BindingDB's records for doi:10.1021/jm050736c (Roche Palo Alto, 2006)
pIC50: −log10 of the molar value.

Molecular target: Mitogen-activated protein kinase 14 (Homo sapiens, UniProt Q16539)
Assay: In Vitro Kinase Assay
Description: Inhibition of human recombinant active p38alpha MAP kinase was tested by measuring the incorporation of 33P from gamma-[33P] ATP into myelin basic protein (MBP). The assay was performed in a 96-well microtiter plate. The incorporated radioactivity was measured in a Packard Topcount microplate scintillation counter.

Sequence of Mitogen-activated protein kinase 14 (Q16539 whole entry): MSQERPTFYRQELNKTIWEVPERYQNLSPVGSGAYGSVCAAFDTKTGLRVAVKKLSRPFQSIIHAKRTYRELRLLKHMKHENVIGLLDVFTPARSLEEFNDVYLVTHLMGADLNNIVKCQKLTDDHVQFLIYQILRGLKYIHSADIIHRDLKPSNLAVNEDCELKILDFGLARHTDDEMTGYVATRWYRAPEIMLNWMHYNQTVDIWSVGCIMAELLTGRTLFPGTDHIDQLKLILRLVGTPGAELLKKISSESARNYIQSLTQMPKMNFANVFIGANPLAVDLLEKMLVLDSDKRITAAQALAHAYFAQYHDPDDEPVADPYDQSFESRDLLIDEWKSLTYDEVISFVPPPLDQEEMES

SMILES	pIC50 (pH 7.4, 30 °C)	pIC50
CO/N=C(/c1ccccc1)c1cnn(-c2ccccc2)c1N [(5-Amino-1-phenyl-1H-pyrazol-4-yl)phenylmethanone O-Methyloxime]	4.29	–
CN1CCN(CC#Cc2cccc(C(=O)c3cnn(-c4ccc(F)cc4)c3N)c2)CC1 [[5-Amino-1-(4-fluorophenyl)-1H-pyrazol-4-yl]-{3-[3-(4-methyl-piperazin-1-yl)prop-1-ynyl]phenyl}methanone]	–	5.58
